Values joined by “and” are separate entries in the source; they are usually repeats but may differ in a detail not shown here. Equal values may be shown once. Read-outs that look alike come from different tables or passages of the source. One block for each molecule: values may come before it. Where a SMILES comes first, the peptide text is derived from it. [ ]: non-standard residue; d: D form.
What was measured:
[1] = system: Caco-2 monolayers; experiment: TEER of Caco-2 monolayers after apical PIP peptide; format: cell-based, human; conditions: for TEER % of initial baseline at time of washout: 5 mM peptide for 180 min, Caco-2; for Effect on TEER compared to control (FIG. 1): 5 mM peptide, Caco-2 monolayer, one-way ANOVA with bonferroni post-test; for TEER reduced to % of baseline: 5 mM applied to apical surface of Caco-2 monolayers
Protocol: An immortalized human intestinal epithelial cell line (Caco-2) was maintained in DMEM/F12 (Gibco, Paisley, UK) supplemented with 10% FBS, 2 mM L-glutamine (Gibco) 100 U/mL penicillin and 100 μg/mL streptomycin (Gibco). Caco-2 cells were seeded at a density of 7×10^4/well on Transwell™ (Corning, NY) polyester membrane filters (12 mm diameter, 0.4 μm pore size). Feeding with fresh media (Life Technologies, Paisley, UK) was carried out every second day. Caco-2 monolayers with trans-epithelial electrical resistance (TEER) >350 Ω·cm^2 were used for these studies; such TEER values as measured using fixed paddle electrodes and a voltohmeter (World Precision Instruments, UK), were typically achieved between days 15-18 following seeding on Transwell™ filters.
Apical to basal flux of 10 mg/mL 4 kDa fluorescent dextran (Sigma) was performed to assess PIP peptide impact on paracellular permeability. Apical (200 μL) and basal (500 μL) compartment media were replaced with fresh HBSS and allowed to equilibrate for 30 min when TEER measurements were obtained to ensure monolayer integrity. After apical application of the fluorescent dextra the basal compartment volume was collected at set times (typically 0, 15, 30 60, 90, 120 and 180 min) and replaced with fresh HBSS each time. Apical and basal compartment fluorescence was determined using a Fluorostar Omega microplate reader (BMG Labtech, Ortenburg, Germany). After 3 h, the apical compartment fluorescent dextran/peptide solution was removed and replaced with PBS and TEER values were recorded for a further 30 min to monitor monolayer recovery. TEER values were calculated by subtracting blank filter readings and normalized as a percentage of the initial TEER value for that monolayer.

[2] = system: myosin light chain (MLC) phosphorylation; experiment: Western blot, ratio of pMLC to total MLC in Caco-2 lysates; format: cell-based, human; conditions: 5 mM peptide, Caco-2 monolayers
Protocol: (§1) Lysates of Caco-2 monolayers prepared using 200 μL RIPA buffer along with 10 μL protease and phosphatase inhibitors per well were placed in 1.5 mL Eppendorf tubes and centrifuged at 4000×g for 10 min with supernatants being removed and stored at −80° C. until separation using a 12% SDS-PAGE gel. Protein samples were mixed 1:1 with loading buffer and denatured by heating at 95° C. for 5 min with 20 μL being loaded for analysis. Separated proteins were transferred onto a nitrocellulose membrane at 30 V for 75 min. Membranes were blocked with 5% bovine serum albumin in TBS-T for 2 h prior to an overnight incubation at 4° C. with primary antibodies diluted in TBS-T. Membranes were thrice washed with TBS-T and then incubated with fluorescent-tagged secondary antibodies at room temperature for 2 h. Membranes were thrice washed with TBS-T and analysed using a Licor imaging system.

[3] = target: MYPT1 binding to PP1; experiment: MYPT1/PP1 binding assay in presence of increasing PIP peptide concentrations; conditions: read-out: KI for inhibition of MYPT1 binding to PP1
Protocol: (§2) His-tagged PP1 diluted in PBS-T was incubated in nickel coated wells for 1 hour and washed three times with PBS-T. Wells were incubated with increasing concentrations of biotinylated PIP peptides or amino acids 1-299 of MYPT1. Wells were washed again three times with PBS-T and incubated with streptavidin conjugated to Alexa Fluor 488 for 1 hour. Wells were washed as previously and the plate was read for fluorescence (Ex:480 nm, Em: 510 nm).
The binding assay with MYPT1 was repeated in the presence of increasing concentrations of PIP peptides to determine the competition between MYPT1 and the peptides.

[4] = target: PP1 (Homo sapiens, UniProt P62140); experiment: Binding assay of biotinylated peptides or MYPT1 1-299 to immobilised His-tagged PP1
Protocol: as §2

[5] = system: Caco-2 monolayers; experiment: TEER of Caco-2 monolayers after apical PIP peptide; format: cell-based, human; conditions: 5 mM peptide for 180 min, then washout, 90 min recovery
[6] = system: occludin; experiment: Western blot for occludin in lysates of Caco-2 monolayers; format: cell-based, human; conditions: Caco-2 monolayers treated for 90 min
Protocol: as §1

Chain of PP1 (P62140 whole entry): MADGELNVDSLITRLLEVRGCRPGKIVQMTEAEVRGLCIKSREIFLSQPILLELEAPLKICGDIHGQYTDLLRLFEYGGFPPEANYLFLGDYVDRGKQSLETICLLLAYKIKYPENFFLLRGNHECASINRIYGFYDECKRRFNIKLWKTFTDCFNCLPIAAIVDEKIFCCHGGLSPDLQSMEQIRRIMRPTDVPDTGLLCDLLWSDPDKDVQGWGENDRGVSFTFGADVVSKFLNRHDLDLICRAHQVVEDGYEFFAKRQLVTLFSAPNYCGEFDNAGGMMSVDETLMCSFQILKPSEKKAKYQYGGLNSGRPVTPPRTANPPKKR

Molecule: CC(C)[C@@H](NC(=O)[C@@H](CCCCN)NC(=O)[C@@H](Cc1ccccc1)NC(=O)[C@@H](CCCNC(=N)N)NC(=O)[C@H](N)CCCNC(=N)N)C(=O)N[C@H](CCCCN)C(=O)N[C@@H](C(=O)N[C@H](CCCCN)C(=O)N[C@H](CCCCN)C(=O)N[C@H](CCCNC(=N)N)C(=O)N[C@H](CCCCN)C(N)=O)[C@H](C)O [PIP250, H-rrfkvktkkrk-NH2, reference compound] (H-[dR][dR][dF][dK][dV][dK][dT][dK][dK][dR][dK]-NH2)
TEER % of initial baseline at time of washout [1]: ~ 50% and 49%
Effect on TEER compared to control (FIG. 1) [1]: significantly different from control
ratio of pMLC to MLC compared to untreated control [2]: significantly increased
Ki [3]: 155 µM
Kd [4]: 610 µM
TEER % of baseline 90 min after washout [5]: 54%
occludin level % of control [6]: 65.8%

Molecule: CC(C)[C@@H](NC(=O)[C@@H](CCCCN)NC(=O)[C@@H](C)NC(=O)[C@@H](CCCNC(=N)N)NC(=O)[C@H](N)CCCNC(=N)N)C(=O)N[C@H](CCCCN)C(=O)N[C@@H](C(=O)N[C@H](CCCCN)C(=O)N[C@H](CCCCN)C(=O)N[C@H](CCCNC(=N)N)C(=O)N[C@H](CCCCN)C(N)=O)[C@H](C)O [PIP251, H-rrakvktkkrk-NH2] (H-[dR][dR][dA][dK][dV][dK][dT][dK][dK][dR][dK]-NH2)
TEER reduced to % of baseline [1]: 62.7%
TEER % of initial baseline at time of washout [1]: 58%
Effect on TEER compared to control (FIG. 1) [1]: significantly different from control
ratio of pMLC to MLC compared to untreated control [2]: increased the ratio of pMLC to MLC, however to a lesser extent than the parent PIP250
Kd [4]: 1280 µM
TEER % of baseline 90 min after washout [5]: 94%
occludin level % of control [6]: 84.1%

Molecule: C[C@H](O)[C@@H](NC(=O)[C@@H](CCCCN)NC(=O)[C@@H](C)NC(=O)[C@@H](CCCCN)NC(=O)[C@@H](Cc1ccccc1)NC(=O)[C@@H](CCCNC(=N)N)NC(=O)[C@H](N)CCCNC(=N)N)C(=O)N[C@H](CCCCN)C(=O)N[C@H](CCCCN)C(=O)N[C@H](CCCNC(=N)N)C(=O)N[C@H](CCCCN)C(N)=O [PIP252, H-rrfkaktkkrk-NH2] (H-[dR][dR][dF][dK][dA][dK][dT][dK][dK][dR][dK]-NH2)
TEER reduced to % of baseline [1]: 66%
TEER % of initial baseline at time of washout [1]: 55%
Effect on TEER compared to control (FIG. 1) [1]: significantly different from control
ratio of pMLC to MLC compared to untreated control [2]: increased the ratio of pMLC to MLC, however to a lesser extent than the parent PIP250
Kd [4]: 724 µM
TEER % of baseline 90 min after washout [5]: 70%
occludin level % of control [6]: 61.4%

Molecule: CC(C)[C@@H](NC(=O)[C@@H](CCCCN)NC(=O)[C@@H](CC(=O)O)NC(=O)[C@@H](CCCNC(=N)N)NC(=O)[C@H](N)CCCNC(=N)N)C(=O)N[C@H](CCCCN)C(=O)N[C@@H](C(=O)N[C@H](CCCCN)C(=O)N[C@H](CCCCN)C(=O)N[C@H](CCCNC(=N)N)C(=O)N[C@H](CCCCN)C(N)=O)[C@H](C)O [PIP253, H-rrdkvktkkrk-NH2] (H-[dR][dR][dD][dK][dV][dK][dT][dK][dK][dR][dK]-NH2)
TEER reduced to % of baseline [1]: 88%
Effect on TEER compared to control (FIG. 1) [1]: not significant
ratio of pMLC to MLC compared to untreated control [2]: did not significantly increase

Molecule: C[C@H](O)[C@@H](NC(=O)[C@@H](CCCCN)NC(=O)[C@@H](CC(=O)O)NC(=O)[C@@H](CCCCN)NC(=O)[C@@H](Cc1ccccc1)NC(=O)[C@@H](CCCNC(=N)N)NC(=O)[C@H](N)CCCNC(=N)N)C(=O)N[C@H](CCCCN)C(=O)N[C@H](CCCCN)C(=O)N[C@H](CCCNC(=N)N)C(=O)N[C@H](CCCCN)C(N)=O [PIP254, H-rrfkdktkkrk-NH2] (H-[dR][dR][dF][dK][dD][dK][dT][dK][dK][dR][dK]-NH2)
TEER reduced to % of baseline [1]: 85%
Effect on TEER compared to control (FIG. 1) [1]: not significant
ratio of pMLC to MLC compared to untreated control [2]: did not significantly increase

Kd ([4]; derived from binding curves, read-out: KD for binding to PP1): 0.05 µM
Kd ([4]; same assay, read-out: KD for binding to PP1): 0.049 µM
B1: MYPT11-299: amino acids 1-299 of MYPT1 (protein, UniProt O14974 1-299, looked up, fragment)
chain: MKMADAKQKRNEQLKRWIGSETDLEPPVVKRQKTKVKFDDGAVFLAACSSGDTDEVLKLLHRGADINYANVDGLTALHQACIDDNVDMVKFLVENGANINQPDNEGWIPLHAAASCGYLDIAEFLIGQGAHVGAVNSEGDTPLDIAEEEAMEELLQNEVNRQGVDIEAARKEEERIMLRDARQWLNSGHINDVRHAKSGGTALHVAAAKGYTEVLKLLIQAGYDVNIKDYDGWTPLHAAAHWGKEEACRILVDNLCDMEMVNKVGQTAFDVADEDILGYLEELQKKQNLLHSEKRDKKS

— patent US12692290B2, “Modulators of tight junction permeability” (The University of Bath, priority 2020, dated 2026)
